Reference: US11851449B2, “Heterocyclic amide compounds having an RORvt inhibitory action” (TAKEDA PHARMACEUTICAL COMPANY LIMITED, priority 2013, dated 2023)

Assays:
RORγt [1] = target: T1, RORγt (Homo sapiens, UniProt P51449); assay: RORγt binding test (TR-FRET, fluorescent-labeled cholesterol); conditions: read-out: binding inhibitory rate (%) of fluorescent-labeled cholesterol to RORγt at test compound 1 μM
T1 sequence (P51449 1-497 isoform P51449-2): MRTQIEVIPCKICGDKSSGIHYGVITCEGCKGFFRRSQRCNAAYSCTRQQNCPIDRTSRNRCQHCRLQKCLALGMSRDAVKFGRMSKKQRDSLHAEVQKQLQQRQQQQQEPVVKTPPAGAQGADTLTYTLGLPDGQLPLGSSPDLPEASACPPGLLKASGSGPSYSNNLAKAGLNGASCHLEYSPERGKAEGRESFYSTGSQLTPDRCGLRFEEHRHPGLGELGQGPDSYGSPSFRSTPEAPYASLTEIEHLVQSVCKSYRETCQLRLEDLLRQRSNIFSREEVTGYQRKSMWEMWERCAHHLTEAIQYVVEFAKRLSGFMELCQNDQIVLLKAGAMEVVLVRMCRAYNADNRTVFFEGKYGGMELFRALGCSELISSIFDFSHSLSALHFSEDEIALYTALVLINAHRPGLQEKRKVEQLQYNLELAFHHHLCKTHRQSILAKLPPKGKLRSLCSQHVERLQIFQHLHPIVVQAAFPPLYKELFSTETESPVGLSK
Procedure: The binding activity of the test compound to RORγt was measured by a time resolved fluorescence resonance energy transfer method (TR-FRET) utilizing histidine-tagged RORγt, fluorescent-labeled cholesterol (BODIPY-cholesterol, AVIVA), and terbium-labeled anti-histidine tag antibody (Invitrogen). First, a test compound diluted with an assay buffer (20 mM Tris-HCl (pH 7.5), 100 mM NaCl, 1 mM DTT, 0.1% BSA) was added to a 384 well plate by 3 μL. Then, RORγt diluted with an assay buffer to 240 nM was added by 3 μL, after which fluorescent-labeled cholesterol diluted with the assay buffer to 12 μM was added by 3 μL, and the mixture was stood at room temperature for 20 min. Thereafter, a terbium-labeled anti-histidine tag antibody diluted with the assay buffer to 8 nM was added by 3 μL. The mixture was stood at room temperature for 20 min, and fluorescence intensity (excitation wavelength 320 nm, fluorescence wavelength 520 nm, delay time 100 microseconds) was measured by Envision (PerkinElmer).

RORγt [2] = target: T1, RORγt; assay: Jurkat reporter test (human IL-17 ROR response element luciferase reporter); type: cell-based; conditions: Jurkat, read-out: luminescence level inhibitory rate (%) at test compound 3 μM
Procedure: The Jurkat cells used for the reporter test were cultured in a culture medium (RPMI (Invitrogen), 10% FCS (AusGeneX), 100 U/mL penicillin, 100 μg/mL streptomycin). On the day of the test, 4×10^7 cells were recovered by a centrifugal operation (1000 rpm, 5 min.) and suspended in PBS (phosphate buffered saline) (Invitrogen). Thereafter, the cells were recovered again by a centrifugal operation, and suspended in 2 mL of R buffer (NEON transfection kit, Invitrogen). […] Gene transfer was performed by Electroporation apparatus (NEON, Invitrogen) under the conditions of pulse voltage 1350 V, interval 10 milliseconds, number of times 3. The cells after gene transfer were suspended in 40 mL of a reaction medium (RPMI, 10% Lipid reduced FCS (HyClone), 10 mM HEPES (pH 7.5), 100 U/mL penicillin, 100 μg/mL streptomycin, 5 μM lovastatin), and plated in a 96 well plate by 90 μL. A test compound diluted with the reaction medium was added by 10 μL, and the cells were cultured overnight in an incubator. Bright-Glo (Promega) was added by 100 μL, and the mixture was stirred at room temperature for 10 min, and the luminescence level was measured by Envision (PerkinElmer).

RORγt [3] = target: T1, RORγt; assay: Cofactor recruitment test (Alpha Screen, biotinylated SRC-1 peptide); type: biochemical; conditions: read-out: signal value inhibitory rate (%) at test compound 1 μM
Procedure: Cofactor Recruitment Test
Cofactor recruitment test was performed by Alpha Screen (Histidine Detection Kit, PerkinElmer) method. First, a test compound was diluted with an assay buffer (50 mM Tris-HCl (pH 7.5), 50 mM KCl, 1 mM DTT, 0.1% BSA) and added to a 384 well plate by 5 μL. […] The mixture was stood in a dark place for 1 hr, and the signal value was measured by Envision (PerkinElmer).

SMILES	inhibition at 1 µM (RORγt [1])	inhibition at 3 µM (RORγt [2])	inhibition at 1 µM (RORγt [3])
COc1ccc(C(NC(=O)Cc2cnn(C)c2)C(=O)Nc2ccc([Si](C)(C)C)cc2)cc1 (stereo not drawn) [Example 20, 2-(4-methoxyphenyl)-2-(((1-methyl-1H-pyrazol-4-yl)acetyl)amino)-N-(4-(trimethylsilyl)phenyl)acetamide]	101%	91.8%	73%
COc1ccc(C(C(=O)Nc2cc(F)c([Si](C)(C)C)cc2F)N(C)C(=O)c2cc(O)no2)cc1 (stereo not drawn) [Example 21, N-(2-((2,5-difluoro-4-(trimethylsilyl)phenyl)amino)-1-(4-methoxyphenyl)-2-oxoethyl)-3-hydroxy-N-methyl-1,2-oxazole-5-carboxamide]	101%	98.3%	93.1%
COCc1ccc(C(NC(=O)Cc2cnn(C)c2)C(=O)Nc2ccc([Si](C)(C)C)cc2)cc1 (stereo not drawn) [Example 22, 2-(4-(methoxymethyl)phenyl)-2-(((1-methyl-1H-pyrazol-4-yl)acetyl)amino)-N-(4-(trimethylsilyl)phenyl)acetamide]	101%	97.2%	90.6%
COc1ccc([C@H](C(=O)Nc2cc(F)c([Si](C)(C)C)cc2F)N(C)C(=O)c2cc(O)no2)cc1 [Example 25, N-((1R)-2-((2,5-difluoro-4-(trimethylsilyl)phenyl)amino)-1-(4-methoxyphenyl)-2-oxoethyl)-3-hydroxy-N-methyl-1,2-oxazole-5-carboxamide]	102%	100%	95.7%
COCc1ccc(C(NC(=O)C2CNC(=O)C2)C(=O)Nc2ccc([Si](C)(C)C)c(C#N)c2)cc1 (stereo not drawn) [Example 26, N-(2-((3-cyano-4-(trimethylsilyl)phenyl)amino)-1-(4-(methoxymethyl)phenyl)-2-oxoethyl)-5-oxopyrrolidine-3-carboxamide]	103%	97.6%	99.5%
COc1ccc(C(NC(=O)C2CNC(=O)C2)C(=O)Nc2ccc([Si](C)(C)C)c(C#N)c2)cc1 (stereo not drawn) [Example 27, N-(2-((3-cyano-4-(trimethylsilyl)phenyl)amino)-1-(4-methoxyphenyl)-2-oxoethyl)-5-oxopyrrolidine-3-carboxamide]	103%	96%	92.5%
COc1ccc(C(NC(=O)C2CNC(=O)C2)C(=O)Nc2ccc([Si](C)(C)C)c(F)c2)cc1 (stereo not drawn) [Example 28, N-(2-((3-fluoro-4-(trimethylsilyl)phenyl)amino)-1-(4-methoxyphenyl)-2-oxoethyl)-5-oxopyrrolidine-3-carboxamide]	100%	98%	88%
COc1ccc(C(NC(=O)N2CCC(O)C2)C(=O)Nc2ccc([Si](C)(C)C)c(F)c2)cc1 (stereo not drawn) [Example 29, N-(2-((3-fluoro-4-(trimethylsilyl)phenyl)amino)-1-(4-methoxyphenyl)-2-oxoethyl)-3-hydroxypyrrolidine-1-carboxamide]	101%	99.2%	92.3%
COc1ccc(C(NC(=O)N2CC(O)C2)C(=O)Nc2ccc([Si](C)(C)C)c(F)c2)cc1 (stereo not drawn) [Example 30, N-(2-((3-fluoro-4-(trimethylsilyl)phenyl)amino)-1-(4-methoxyphenyl)-2-oxoethyl)-3-hydroxyazetidine-1-carboxamide]	98.5%	99.8%	95.1%
COCc1ccc(C(C(=O)Nc2ccc([Si](C)(C)C)c(F)c2)N(C)C(=O)c2cc(O)no2)cc1 (stereo not drawn) [Example 31, N-(2-((3-fluoro-4-(trimethylsilyl)phenyl)amino)-1-(4-(methoxymethyl)phenyl)-2-oxoethyl)-3-hydroxy-N-methyl-1,2-oxazole-5-carboxamide]	99.5%	99.5%	98.3%
COCc1ccc(C(NC(=O)C2CNC(=O)C2)C(=O)Nc2ccc([Si](C)(C)C)c(F)c2)cc1 (stereo not drawn) [Example 32, N-(2-((3-fluoro-4-(trimethylsilyl)phenyl)amino)-1-(4-(methoxymethyl)phenyl)-2-oxoethyl)-5-oxopyrrolidine-3-carboxamide]	95.2%	99.1%	95.6%
COCc1ccc(C(NC(=O)N2CCC(O)C2)C(=O)Nc2ccc([Si](C)(C)C)c(F)c2)cc1 (stereo not drawn) [Example 33, N-(2-((3-fluoro-4-(trimethylsilyl)phenyl)amino)-1-(4-(methoxymethyl)phenyl)-2-oxoethyl)-3-hydroxypyrrolidine-1-carboxamide]	101%	98.4%	97.7%
COCc1ccc(C(NC(=O)N2CC(O)C2)C(=O)Nc2ccc([Si](C)(C)C)c(F)c2)cc1 (stereo not drawn) [Example 34, N-(2-((3-fluoro-4-(trimethylsilyl)phenyl)amino)-1-(4-(methoxymethyl)phenyl)-2-oxoethyl)-3-hydroxyazetidine-1-carboxamide]	101%	99.2%	98.9%
COCc1ccc(C(NC(=O)Cc2nnc(C)o2)C(=O)Nc2ccc([Si](C)(C)C)c(F)c2)cc1 (stereo not drawn) [Example 35, N-(3-fluoro-4-(trimethylsilyl)phenyl)-2-(4-(methoxymethyl)phenyl)-2-(((5-methyl-1,3,4-oxadiazol-2-yl)acetyl)amino)acetamide]	103%	101%	96.6%
COCc1ccc(C(NC(=O)Cn2cnccc2=O)C(=O)Nc2ccc([Si](C)(C)C)c(F)c2)cc1 (stereo not drawn) [Example 36, N-(3-fluoro-4-(trimethylsilyl)phenyl)-2-(4-(methoxymethyl)phenyl)-2-(((6-oxopyrimidin-1(6H)-yl)acetyl)amino)acetamide]	96.2%	99.8%	98.2%
COc1ccc(C(NC(=O)C2CNC(=O)C2)C(=O)Nc2cc(F)c([Si](C)(C)C)c(F)c2)cc1 (stereo not drawn) [Example 37, N-(2-((3,5-difluoro-4-(trimethylsilyl)phenyl)amino)-1-(4-methoxyphenyl)-2-oxoethyl)-5-oxopyrrolidine-3-carboxamide]	101%	98.5%	93.6%
COCc1ccc(C(C(=O)Nc2cc(F)c([Si](C)(C)C)c(F)c2)N(C)C(=O)c2cc(O)no2)cc1 (stereo not drawn) [Example 38, N-(2-((3,5-difluoro-4-(trimethylsilyl)phenyl)amino)-1-(4-(methoxymethyl)phenyl)-2-oxoethyl)-3-hydroxy-N-methyl-1,2-oxazole-5-carboxamide]	102%	100%	99.7%
COCc1ccc(C(NC(=O)Cc2cc(O)no2)C(=O)Nc2cc(F)c([Si](C)(C)C)c(F)c2)cc1 (stereo not drawn) [Example 39, N-(3,5-difluoro-4-(trimethylsilyl)phenyl)-2-(((3-hydroxy-1,2-oxazol-5-yl)acetyl)amino)-2-(4-(methoxymethyl)phenyl)acetamide]	103%	100%	99.6%
COCc1ccc(C(NC(=O)Cn2cnccc2=O)C(=O)Nc2cc(F)c([Si](C)(C)C)c(F)c2)cc1 (stereo not drawn) [Example 40, N-(3,5-difluoro-4-(trimethylsilyl)phenyl)-2-(4-(methoxymethyl)phenyl)-2-(((6-oxopyrimidin-1(6H)-yl)acetyl)amino)acetamide]	101%	100%	98.7%
